The values below come from patent publication US12410163B2, “Compounds as GLP-IR agonists” (Terns Pharmaceuticals, Inc., priority 2022, dated 2025).

The nature of series [1]: Passive permeability and efflux ratio (Caco-2). It counts as in vitro ADME. Conditions: human. Here is the method: Caco-2 cells (clone C2BBe1) are obtained, e.g., from American Type Culture Collection (Manassas, VA). Cell monolayers are grown to confluence on collagen-coated, microporous membranes in 12-well assay plates. The permeability assay buffer is Hanks' balanced salt solution containing 10 mM HEPES and 15 mM glucose at a pH of 7.4. The buffer in the receiver chamber also contains 1% bovine serum albumin. The dosing solution concentration is 5 μM of test article in the assay buffer. Cell monolayers are dosed on the apical side (A-to-B) or basolateral side (B-to-A) and incubated at 37° C. with 5% CO2 in a humidified incubator. Samples are taken from the donor and receiver chambers at 120 minutes. Each determination is performed in duplicate. The flux of lucifer yellow is also measured post-experimentally for each monolayer to ensure no damage is inflicted to the cell monolayers during the flux period. All samples are assayed by LC-MS/MS using electrospray ionization. The apparent permeability (Papp) and percent recovery were calculated as follows: Papp=(dCr/dt)×Vr/(A×CA) (1) Percent Recovery=100×((Vr×Cr^final)+(Vd×Cd^final))/(Vd×CN) (2), where, dCr/dt is the slope of the cumulative receiver concentration versus time in μM s^−1; Vr is the volume of the receiver compartment in cm^3; Vd is the volume of the donor compartment in cm^3; A is the area of the insert (1.13 cm^2 for 12-well); CA is the average of the nominal dosing concentration and the measured 120-minute donor concentration in μM; CN is the nominal concentration of the dosing solution in μM; Cr^final is the cumulative receiver concentration in μM at the end of the incubation period; Cd^final is the concentration of the donor in μM at the end of the incubation period. Efflux ratio (ER) is defined as Papp (B-to-A)/Papp (A-to-B). Rat Pharmacokinetics
Caco-2 cells (clone C2BBe1) were obtained from American Type Culture Collection (Manassas, VA). Cell monolayers were grown to confluence on collagen-coated, microporous membranes in 12-well assay plates. Details of the plates and their certification are shown below. The permeability assay buffer was Hanks' balanced salt solution containing 10 mM HEPES and 15 mM glucose at a pH of 7.4. The buffer in the receiver chamber also contained 1% bovine serum albumin. The dosing solution concentration was 5 μM of test article in the assay buffer. Cell monolayers were dosed on the apical side (A-to-B) or basolateral side (B-to-A) and incubated at 37° C. with 5% CO2 in a humidified incubator. Samples were taken from the donor and receiver chambers at 120 minutes. Each determination was performed in duplicate. The flux of lucifer yellow was also measured post-experimentally for each monolayer to ensure no damage was inflicted to the cell monolayers during the flux period. All samples were assayed by LC-MS/MS using electrospray ionization. The apparent permeability (Papp) and percent recovery were calculated as follows: Papp=(dCr/dt)×Vr/(A×CA) (1) Percent Recovery=100×((Vr×Cr^final)+(Vd×Cd^final))/(Vd×CN) (2), where, dCr/dt is the slope of the cumulative receiver concentration versus time in μM s^−1; Vr is the volume of the receiver compartment in cm^3; Vd is the volume of the donor compartment in cm^3; A is the area of the insert (1.13 cm^2 for 12-well); CA is the average of the nominal dosing concentration and the measured 120-minute donor concentration in μM; CN is the nominal concentration of the dosing solution in μM; Cr^final is the cumulative receiver concentration in μM at the end of the incubation period; Cd^final is the concentration of the donor in μM at the end of the incubation period. Efflux ratio (ER) is defined as Papp (B-to-A)/Papp (A-to-B).
(Caco-2 cells form a polarised layer with tight junctions and transporters.)

For series [2], the target named is T1, human GLP-1R receptor (Homo sapiens, UniProt P43220).
T1 construct: expressed in transfected cells
T1 sequence (P43220 24-463): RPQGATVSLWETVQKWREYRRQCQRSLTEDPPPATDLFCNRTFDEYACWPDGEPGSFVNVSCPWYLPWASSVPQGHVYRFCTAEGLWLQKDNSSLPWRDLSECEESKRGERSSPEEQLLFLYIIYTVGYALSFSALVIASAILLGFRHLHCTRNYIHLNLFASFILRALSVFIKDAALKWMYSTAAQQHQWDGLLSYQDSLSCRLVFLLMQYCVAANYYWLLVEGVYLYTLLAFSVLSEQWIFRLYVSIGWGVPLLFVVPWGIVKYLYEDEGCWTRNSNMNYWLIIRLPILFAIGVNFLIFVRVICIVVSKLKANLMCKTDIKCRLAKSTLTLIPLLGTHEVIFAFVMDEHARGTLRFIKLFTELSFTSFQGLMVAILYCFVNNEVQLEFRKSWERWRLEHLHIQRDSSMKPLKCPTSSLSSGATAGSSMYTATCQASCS
Description: GLP-1R low expression cell assay (cAMP TR-FRET, CHO-K1_hGLP-1Rlow_clone10). Conditions: CHO-K1_hGLP-1Rlow_clone10 cells, percent activation relative to control GLP-1 peptide. Format: cell-based. The procedure: Stable cell lines expressing high and low GLP-1R surface expression are generated in CHO-K1 cells transfected (Fugene 6) with a puromycin selectable DNA plasmid encoding human GLP-1R receptor (accession number: NM_002062.5) under control of an EF1A promoter. Transfected cells are seeded into 24-well plates (9,000 cells/well) containing complete medium and incubated in a humidified incubator at 37° C. with 5% carbon dioxide. After overnight incubation, medium is replaced with complete medium supplemented with puromycin (6 μg/mL) and refreshed every 2-3 days to select for stably transfected cells. Individual pools of selected cells are expanded prior to analysis for responsiveness to GLP-1 control peptide using a TR-FRET assay to detect cAMP (LANCE Ultra cAMP Assay, Perkin Elmer). Briefly, cells are collected in Versene solution, plated in 384-well plates (1,000 cells/well) and combined with serially diluted GLP-1R control peptide (10 nL) using an acoustic dispenser (ECHO). Plates are incubated for 30 minutes at 25° C. prior to the addition of EU-cAMP tracer (5 μL) and Ulight-anti-cAMP (5 μL) reagents to each well, followed by 15 minutes incubation at 25° C. TR-FRET signal is detected using an EnVision Multimode Plate Reader (excitation=320 nm; emission=615 and 655 nm). Dose-response curves are used to generate EC50 values as a measure of responsiveness to the GLP-1R control peptide. Selected cell lines are monitored for responsiveness over multiple passages to ensure stability. […] Briefly, GLP-1R expression is analyzed by flow cytometry using a fluorescein-labeled Exendin-4 peptide fluorescent probe (FLEX). Cells are harvested in Versene solution and washed 3-times with PBS+0.5% BSA before incubation with FLEX reagent (10 μM) for 2 hours at room temperature. After incubation, cells are washed 3-times in PBS+0.5% BSA before final resuspension in PBS prior to analysis by flow cytometry to measure FLEX mean fluorescence intensity (MFI) as a measure of GLP-1R expression on the cell surface.
For compound testing in the CHO-K1_hGLP-1Rlow_clone10 cell lines, cells are seeded in 384-well plates (1,000 cells/well). Test compounds are serially diluted in DMSO (10-point, 3-fold dilution), added to wells using an ECHO dispenser (10 nL/well) and plates are centrifuged for 1 min and agitated for 2 min at room temperature prior to 30-minute incubation at 25° C. After incubation, Eu-cAMP (5 μL) and Ulight-anti-cAMP (5 μL) reagents are added to each well, followed by centrifugation for 1 minute, agitation for 2 minutes at room temperature, and final incubation of the plates at 25° C. for 15 minutes. Plates are read using an EnVision microplate reader (excitation=320 nm; emission=615 and 655 nm). Dose-response curves are generated from duplicate wells based on percent activation calculated relative to a control GLP-1 peptide agonist that was run in parallel. EC50 values are determined by fitting percent activation as a function of compound concentration using the Hill equation (XLfit).
Stable cell lines expressing high and low GLP-1R surface expression were generated in CHO-K1 cells transfected (Fugene 6) with a puromycin selectable DNA plasmid encoding human GLP-1R receptor (accession number: NM_002062.5) under control of an EF1A promoter. Transfected cells were seeded into 24-well plates (9,000 cells/well) containing complete medium and incubated in a humidified incubator at 37° C. with 5% carbon dioxide. After overnight incubation, medium was replaced with complete medium supplemented with puromycin (6 μg/mL) and refreshed every 2-3 days to select for stably transfected cells. Individual pools of selected cells were expanded prior to analysis for responsiveness to GLP-1 control peptide using a TR-FRET assay to detect cAMP (LANCE Ultra cAMP Assay, Perkin Elmer).

A short description of series [3]: Rat pharmacokinetics. Format: in vivo. Further details: AUC: concentration or dose not given beside the values. Particulars: male Sprague-Dawley rats, plasma, route not given; for half-life: read-out: Rat T1/2 (converted). The procedure: Intravenous dosing: Compounds were formulated at 0.5 mg/mL in a solution comprising 5% polyethylene glycol 400 and 95% (12% (w/v) sulfobutyl-β-cyclodextrin in water) (v/v). Formulated compounds were sterile filtered through a 0.22 micron filter before dosing. Compounds were administered to male, 7-11-week-old Sprague-Dawley rats by jugular vein cannula infusion over 30 minutes at a dose of 1 mg/kg. […]
Sample collection: Blood collections of about 0.2 mL per time point were performed from jugular vein or other suitable site of each animal, into pre-chilled commercial EDTA-K2 tubes and placed on wet ice until centrifugation. Blood samples were processed for plasma by centrifugation at approximately 4° C., 3,200 g for 10 min. Plasma was collected and transferred into pre-labeled 96 well plate or polypropylene tubes, quick frozen over dry ice and kept at −60° C. or lower until LC-MS/MS analysis.
Data analysis: Plasma concentration versus time data was plotted in graph and analyzed by non-compartmental approaches using the Phoenix WinNonlin 6.3 software program. Related PK parameters were calculated according to dosing route, e.g., CL, Vdss and C0 for intravenous administration, Cmax, Tmax or % F for extravascular administration, and T1/2, AUC(0-t), AUC(0-inf), MRT(0-t), MRT(0-inf) for all routes.

A short description of series [4]: Rat pharmacokinetics. Format: in vivo. Particulars: male Sprague-Dawley rats, plasma, route not stated in table (IV or oral gavage 10 mL/kg of 0.3 or 0.6 mg/mL).

One may read the Papp A→B as how fast a substance crosses the layer from the apical side. Usually EC50 stands for the concentration that produces a half-maximal response. Regarding `CC1(c2ccc(C#N)cc2F)Oc2cccc(N3CCN(Cc4nc5ccc(C(=O)O)cc5n4Cc4cncs4)C4CC43)c2O1` (centres unmarked) [Compound 34, 2-((5-(2-(4-Cyano-2-fluorophenyl)-2-methylbenzo[d][1,3]dioxol-4-yl)-2,5-diazabicyclo[4.1.0]heptan-2-yl)methyl)-1-(thiazol-5-ylmethyl)-1H-benzo[d]imidazole-6-carboxylic Acid], in series [1] (pH 7.4, Caco-2, efflux ratio = Papp (B-to-A)/Papp (A-to-B), read-out: ER), the efflux ratio at 120 min, 5 μM worked out at 1.82. The apparent permeability from apical to basolateral (Papp A→B) at 120 min, 5 μM in series [1] (Caco-2, 5 μM, pH 7.4, 120 minutes) is 19.9 ×10⁻⁶ cm/s. The EC50 in series [2] is below 5 nM.

What is called AUC is concentration integrated over time. The Cmax is the peak of the concentration-time curve. In turn, `C[C@]1(c2ccc(C#N)cc2F)Oc2cccc(N3CCN(Cc4nc5ccc(C(=O)O)cc5n4Cc4cncs4)[C@H]4C[C@H]43)c2O1` [Compound 36, 2-((5-(2-(4-Cyano-2-fluorophenyl)-2-methylbenzo[d][1,3]dioxol-4-yl)-2,5-diazabicyclo[4.1.0]heptan-2-yl)methyl)-1-(thiazol-5-ylmethyl)-1H-benzo[d]imidazole-6-carboxylic Acid] came in with an EC50 in series [2] of 5 to 50 nM. Further, in series [3], the exposure (AUC) was 20.7 ± 12.6 ng·h/mL and the half-life was 108 min. The compound also displayed a Cmax in series [4] of 19.3 ± 2.7 ng/mL.

The compound `C[C@@]1(c2ccc(C#N)cc2F)Oc2cccc(N3CCN(Cc4nc5ccc(C(=O)O)cc5n4Cc4cncs4)[C@@H]4C[C@@H]43)c2O1` [Compound 37, 2-((5-(2-(4-Cyano-2-fluorophenyl)-2-methylbenzo[d][1,3]dioxol-4-yl)-2,5-diazabicyclo[4.1.0]heptan-2-yl)methyl)-1-(thiazol-5-ylmethyl)-1H-benzo[d]imidazole-6-carboxylic Acid] returned an EC50 in series [2] below 5 nM. Moreover, the AUC in series [3] was 15.8 ± 7.6 ng·h/mL. In series [4], this compound displayed a maximum concentration (Cmax) of 20 ± 7.7 ng/mL.

`C[C@]1(c2ccc(C#N)cc2F)Oc2cccc(N3CCN(Cc4nc5ccc(C(=O)O)cc5n4Cc4cncs4)[C@@H]4C[C@@H]43)c2O1` [Compound 38, 2-((5-(2-(4-Cyano-2-fluorophenyl)-2-methylbenzo[d][1,3]dioxol-4-yl)-2,5-diazabicyclo[4.1.0]heptan-2-yl)methyl)-1-(thiazol-5-ylmethyl)-1H-benzo[d]imidazole-6-carboxylic Acid]: in series [2], the half-maximal effective concentration (EC50) is above 100 nM. For the same compound, in series [3], the exposure (AUC) stood at 109 ± 21.5 ng·h/mL and the half-life was 96 min. Moreover, the Cmax in series [4] is 58.3 ± 9.74 ng/mL.
